Our source for the GI50 and TGI values is PubChem BioAssay (NCI).

What is called GI50 is the concentration giving 50% growth inhibition. Usually TGI stands for the concentration at which net growth stops. A low value points to more potent growth arrest.

Among the test systems are SF-539 CNS; COLO 205 colon; T-47D breast; PC-3 prostate; U251 CNS; UACC-257 melanoma; SR leukemia; CAKI-1 renal; HOP-62 NSCLC; LOX IMVI melanoma.
Common to all, as to assay: DTP human tumour cell line panel, 48 h

The structures appear in SMILES notation.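 Values below derive from 48-hour exposures of cells grown in 96-well plates, with endpoints linearly interpolated between the two concentrations bracketing the appropriate inhibition level. Abbreviation: GI50, concentration required for 50% inhibition of growth. TGI: concentration producing complete growth inhibition.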

With `CC(=O)O[C@]1(C(C)=O)CC[C@H]2[C@@H]3C=C(C)C4=CC(=O)CC[C@]4(C)[C@H]3CC[C@@]21C`, the GI50 was above 61.4 µM in the experiment with SF-539 CNS; above 100 µM with COLO 205 colon; above 64.7 µM with T-47D breast; 42.6 µM in the experiment with PC-3 prostate; above 60.9 µM in the experiment with U251 CNS; above 89.2 µM in the experiment on UACC-257 melanoma. For the same compound, the GI50 in the experiment on SR leukemia was above 55.8 µM; with CAKI-1 renal it was above 100 µM; with HOP-62 NSCLC, above 100 µM; in the experiment with LOX IMVI melanoma, above 100 µM. For the same compound, the concentration for total growth inhibition (TGI) with SF-539 CNS, with COLO 205 colon, in the experiment with T-47D breast, in the experiment on PC-3 prostate, in the experiment on U251 CNS and with UACC-257 melanoma was above 100 µM throughout. Besides, the TGI in the experiment with SR leukemia, in the experiment on CAKI-1 renal, in the experiment with HOP-62 NSCLC and in the experiment with LOX IMVI melanoma was above 100 µM each time.

Turning to `COC(=O)C1=C(C)NC(C)=C(C(=O)OC)C1/C=C(Cl)/C=C/c1ccccc1`, the GI50 in the experiment with SF-539 CNS was 21 µM; in the experiment with COLO 205 colon, 30.9 µM; in the experiment on T-47D breast, 42.9 µM; in the experiment on PC-3 prostate, 18.2 µM; in the experiment on U251 CNS it was 23 µM; in the experiment with UACC-257 melanoma it was 16.8 µM. In addition, the GI50 is 19.5 µM with SR leukemia, 20.7 µM in the experiment on CAKI-1 renal, 20.1 µM in the experiment with HOP-62 NSCLC and 15.1 µM with LOX IMVI melanoma. Besides, the TGI is 41.2 µM in the experiment on SF-539 CNS; 75.6 µM with COLO 205 colon; above 100 µM in the experiment on T-47D breast; 38.3 µM in the experiment with PC-3 prostate; 58.5 µM in the experiment on U251 CNS; 41 µM with UACC-257 melanoma. In addition, the TGI with SR leukemia was determined as 38.5 µM; in the experiment with CAKI-1 renal it was 49.3 µM; in the experiment with HOP-62 NSCLC, 38.5 µM; in the experiment on LOX IMVI melanoma it was 28.8 µM.
